# Data reported in patent US10697020B2, “MicroRNA-129 as a biomarker for colorectal cancer” (THE RESEARCH FOUNDATION FOR THE STATE UNIVERSITY OF NEW YORK, priority 2013, dated 2020).
# pIC50: −log10 of the molar value. Where two headings read alike, the source gives them in different places.
# Tests used:
# HCT116 cells [1] = assay: Colorectal cancer xenografts (HCT116) in NOD/SCID mice, tumor volume; format: in vivo; details: day 24
# Protocol: When solid and palpable tumors with an average volume of 100-150 mm^3 were formed (at day 14), mice were randomly separated into four groups such that each group was treated either with negative control miRNA, miR-129 alone, 5-FU alone or miR-129 and 5-FU together. The miRNAs were complexed with siPORTamine and injected intratumorally while 5-FU (50 μg g^−1) was injected systemically via the tail vein. All injections were provided in 3-day intervals for a total of three times before the tumors were collected at day 24. […] Importantly, despite the overexpression, the expression levels of miR-129 copy number remained within the physiological range (less than 20 copies/cell based on cycle threshold value at 30, which is equal to the expression of miR-129 in normal colon mucosa). Moreover, the control tumor xenografts had no miR-129 expression (cycle threshold value at 35).
# Ten-twelve week old NOD/SCID mice (Jackson Laboratories, Bar Harbor, […]., USA) were used for tumor implantation. All animal procedures were approved by the Stony Brook University Institutional Animal Care and Use Committee (IACUC). The tumor implantation and miRNA injection protocol was modified from Trang et al. (see Trang P., et al., Oncogene. (2010) 29(11):1580-7). The mice were anesthetized by isoflurane inhalation. HCT116 cells were subcutaneously injected into the lower back areas of the mice using 2.5×10^6 cells in 100 μl McCoy's 5A with 50% matrigel (BD Biosciences). The tumor size was measured using a caliper and tumor volume was calculated using the formula V=length×width^2/2. When tumor volumes reach 100-150 mm^3 at day 14 post-injection, the mice were randomly assigned into four groups. For the first two groups, 10 μM negative miRNA or miR-129 precursor (Ambion) complexed with 1.6 μl siPORTAmine (Ambion) in 50 μl McCoy's 5A was injected into the tumors every three days. For the third group, 5-FU (Sigma-Aldrich) was injected at 50 μg/g via the tail vein every three days. Finally, for the last group, both miR-129 precursor and 5-FU were injected as described above. The mice were euthanized on day 24 post-injection by CO2 inhalation, and tumors were dissected out for RNA isolation.
# HCT116 cells [2] = assay: 5-FU treatment and cytotoxicity assay (WST-1); format: cell-based; details: Homo sapiens, HCT-116, 72 h, read-out: IC50 (50% growth inhibition, WST-1)
# Protocol: Twenty-four hours after transfection, HCT116 cells were plated in 96-well plates at 2×10^3 cells per well in triplicates in 100 μl of medium. After 24 hours, fresh medium containing 5-FU alone (ranged from 1 to 4 μM) or miR-129 precursor alone (ranged from 10 nM to 40 nM) or 5-FU and miR-129 together (at a constant ratio 1:10, with increasing concentrations of both compounds) were added, and cells were cultured for an additional 72 hours. Cell viability was measured using the WST-1 assay, and concentration-dependent curves were generated based on the cell viability. The combination index was calculated by CompuSyn software. See, Chou T C et al. (2007).
structure (smiles),measurement,setting,value
"O=c1[nH]cc(F)c(=O)[nH]1 [5-FU, 5-fluoro-1H-pyrimidine-2,4-dione, reference compound]",inhibition of tumor growth (in words),"HCT116 cells [1]; HCT116 xenograft, compared with negative miRNA or single agents",strong inhibitory effect
same,"average tumor volume, % of the control group","HCT116 cells [1]; treated days 14, 17, 20, miRNA intratumoral with siPORTamine, 5-FU 50 μg/g tail vein, control negative miRNA",48.4%
same,pIC50,HCT116 cells [2]; 5-FU alone,5.64
same,pIC50,HCT116 cells [2]; 5-FU when combined with miR-129 (fixed ratio 1:10),6.22
